Laboratory results: ChEMBL document CHEMBL4251620, “Biological evaluation of indolizine-chalcone hybrids as new anticancer agents” (Eur J Med Chem, 2018)
The source made the active and inactive calls. No cut-off for these calls is given here.

What was measured:
[1] = tested on: U-937; assay: Cytotoxicity activity against human U937 cells assessed as cell viability at 1 uM after 48 hrs by CCK-8 assay; assay type: functional; settings: U-937, 48 h, read-out: Activity
[2] = tested on: Raji; assay: Cytotoxicity against human Raji cells assessed as reduction in cell viability after 48 hrs by CCK-8 assay; assay type: functional, cell-based
[3] = tested on: Raji; assay: Induction of apoptosis in human Raji cells at 10 uM after 48 hrs by muse Annexin V/dead cell reagent staining-based flow cytometric analysis (reference value: 9.58%); assay type: functional
[4] = tested on: U-937; assay: Cytotoxicity activity against human U937 cells assessed as reduction in cell viability after 48 hrs by CCK-8 assay; assay type: functional, cell-based; settings: U-937, 48 h
[5] = tested on: JeKo-1; assay: Cytotoxicity activity against human JeKo1 cells assessed as reduction in cell viability after 48 hrs by CCK-8 assay; assay type: functional, cell-based; settings: JeKo-1, 48 h
[6] = tested on: JeKo-1; assay: Induction of apoptosis in human JeKo1 cells at 10 uM after 48 hrs by muse Annexin V/dead cell reagent staining-based flow cytometric analysis (reference value: 5.21%); assay type: functional
[7] = tested on: U-937; assay: Induction of apoptosis in human U937 cells at 10 uM after 48 hrs by muse Annexin V/dead cell reagent staining-based flow cytometric analysis (reference value: 2.95%); assay type: functional
[8] = tested on: U-937; assay: Induction of apoptosis in human U937 cells assessed as viable cells at 10 uM after 48 hrs by muse Annexin V/dead cell reagent staining-based flow cytometric analysis (reference value: 97.07%); assay type: functional; settings: U-937, 48 h, read-out: Activity
[9] = tested on: U-937; assay: Induction of apoptosis in human U937 cells assessed as early apoptotic cells at 10 uM after 48 hrs by muse Annexin V/dead cell reagent staining-based flow cytometric analysis (reference value: 1.87%); assay type: functional
[10] = tested on: U-937; assay: Induction of apoptosis in human U937 cells assessed as viable cells at 3 uM after 48 hrs by muse Annexin V/dead cell reagent staining-based flow cytometric analysis (reference value: 97.07%); assay type: functional; settings: U-937, 48 h, read-out: Activity
[11] = tested on: U-937; assay: Induction of apoptosis in human U937 cells assessed as late apoptotic cells at 3 uM after 48 hrs by muse Annexin V/dead cell reagent staining-based flow cytometric analysis (reference value: 1%); assay type: functional
[12] = tested on: U-937; assay: Induction of apoptosis in human U937 cells assessed as necrotic cells at 10 uM after 48 hrs by muse Annexin V/dead cell reagent staining-based flow cytometric analysis (reference value: 0.06%); assay type: functional
[13] = tested on: U-937; assay: Induction of apoptosis in human U937 cells assessed as late apoptotic cells at 10 uM after 48 hrs by muse Annexin V/dead cell reagent staining-based flow cytometric analysis (reference value: 1%); assay type: functional
[14] = tested on: U-937; assay: Induction of apoptosis in human U937 cells assessed as early apoptotic cells at 3 uM after 48 hrs by muse Annexin V/dead cell reagent staining-based flow cytometric analysis (reference value: 1.87%); assay type: functional
[15] = tested on: U-937; assay: Induction of apoptosis in human U937 cells assessed as increase in caspase-3/7 activity at 3 uM after 6 hrs; assay type: functional, cell-based
[16] = tested on: U-937; assay: Induction of apoptosis in human U937 cells assessed as necrotic cells at 3 uM after 48 hrs by muse Annexin V/dead cell reagent staining-based flow cytometric analysis (reference value: 0.06%); assay type: functional
[17] = tested on: U-937; assay: Cytotoxicity activity against human U937 cells assessed as reduction in cell viability at 1 uM after 48 hrs by CCK-8 assay; assay type: functional, cell-based

Cc1c(C(=O)/C=C/c2ccc(Br)o2)cc2cccn2c1C(=O)c1ccccc1
viability at 1 µM [1]: > 80%

Cc1c(C(=O)/C=C/c2ccc3c(c2)OCO3)cc2cccn2c1C(=O)c1ccccc1
viability at 1 µM [1]: > 80%

Cc1ccc(/C=C/C(=O)c2cc3cccn3c(C(=O)c3ccccc3)c2C)cc1
viability at 1 µM [1]: > 80%

COc1ccc(/C=C/C(=O)c2cc3cccn3c(C(=O)c3ccccc3)c2C)cc1
viability at 1 µM [1]: > 80%

COc1cccc2c1C(=O)c1c(O)c3c(c(O)c1C2=O)C[C@@](O)(C(=O)CO)C[C@@H]3O[C@H]1C[C@H](N)[C@H](O)[C@H](C)O1 [DOXORUBICIN]
IC50 [2]: 170 nM
Activity [3]: 95.35%
IC50 [4]: 280 nM
IC50 [5]: 180 nM
Activity [6]: 87.92%
Activity [7]: 74.66%

Cc1c(C(=O)/C=C/c2ccc(Br)s2)cc2cccn2c1C(=O)c1ccccc1
viability at 1 µM [1]: > 80%

Cc1c(C(=O)/C=C/c2ccc([N+](=O)[O-])cc2)cc2cccn2c1C(=O)c1ccccc1
viability at 10 µM [8]: 13.7%
Activity [9]: 16.34%
viability at 3 µM [10]: 26.4%
Activity [11]: 47.12%
Activity [12]: 1.31%
Activity [13]: 68.63%
Activity [14]: 24.87%
Activity [15]: Active
Activity [16]: 1.57%
viability at 1 µM [1]: < 80%
IC50 [4]: 1380 nM

COc1cc(/C=C2\CCc3c(cc4cccn4c3C(=O)c3ccccc3)C2=O)cc(OC)c1
IC50 [4]: 9460 nM

COc1cc(/C=C/C(=O)c2cc3cccn3c(C(=O)c3ccco3)c2C)cc(OC)c1
IC50 [4]: 7530 nM

Cc1c(C(=O)/C=C/c2ccccc2)cc2cccn2c1C(=O)c1ccccc1
viability at 1 µM [1]: > 80%

COc1cc(/C=C/C(=O)c2cc3cccn3c(C(=O)c3ccccc3)c2C)cc(OC)c1
viability at 10 µM [8]: 3.36%
Activity [9]: 8.22%
viability at 3 µM [10]: 14.2%
Activity [11]: 45.57%
IC50 [2]: 1990 nM
Activity [12]: 0%
Activity [13]: 88.41%
Activity [14]: 39.59%
Activity [15]: Active
Activity [3]: 33.78%
Activity [16]: 0.62%
viability at 1 µM [1]: < 80%
IC50 [4]: 1120 nM
IC50 [5]: 1300 nM
Activity [6]: 46.27%
Activity [7]: 51.26%

COc1ccccc1/C=C/C(=O)c1cc2cccn2c(C(=O)c2ccccc2)c1C
viability at 1 µM [1]: > 80%

Cc1c(C(=O)/C=C/c2ccc3ccccc3c2)cc2cccn2c1C(=O)c1ccccc1
viability at 1 µM [1]: > 80%

Cc1c(C(=O)/C=C/c2cccc(Cl)c2)cc2cccn2c1C(=O)c1ccccc1
viability at 10 µM [8]: 7.84%
Activity [9]: 5.94%
viability at 3 µM [10]: 15.8%
Activity [11]: 54.29%
Activity [12]: 0.24%
Activity [13]: 85.99%
Activity [14]: 29.36%
Activity [17]: Active
Activity [15]: Active
Activity [16]: 0.55%
viability at 1 µM [1]: < 80%
IC50 [4]: 1280 nM

COc1cc(/C=C/C(=O)c2cc3cccn3c(C(=O)c3ccccc3)c2C)cc(OC)c1OC
IC50 [4]: 5950 nM

COc1cccc(/C=C/C(=O)c2cc3cccn3c(C(=O)c3ccccc3)c2C)c1
viability at 1 µM [1]: > 80%

Cc1c(C(=O)/C=C/c2ccc(F)cc2)cc2cccn2c1C(=O)c1ccccc1
Activity [17]: Active
viability at 1 µM [1]: > 80%

Cc1c(C(=O)/C=C/c2ccc(Br)cc2)cc2cccn2c1C(=O)c1ccccc1
viability at 10 µM [8]: 8.31%
Activity [9]: 14.54%
viability at 3 µM [10]: 25.7%
Activity [11]: 42.16%
Activity [12]: 0.59%
Activity [13]: 76.56%
Activity [14]: 31.36%
Activity [15]: Active
Activity [16]: 0.77%
viability at 1 µM [1]: < 80%
IC50 [4]: 1380 nM

COc1ccc(/C=C/C(=O)c2cc3cccn3c(C(=O)c3ccccc3)c2C)cc1OC
viability at 1 µM [1]: > 80%

Cc1c(C(=O)/C=C/c2ccc(Cl)cc2)cc2cccn2c1C(=O)c1ccccc1
Activity [17]: Active
viability at 1 µM [1]: > 80%

Cc1c(C(=O)/C=C/c2ccncc2)cc2cccn2c1C(=O)c1ccccc1
viability at 10 µM [8]: 10.7%
Activity [9]: 6.21%
viability at 3 µM [10]: 21.4%
Activity [11]: 47.68%
Activity [12]: 0%
Activity [13]: 83.05%
Activity [14]: 30.03%
Activity [15]: Active
Activity [16]: 0.93%
viability at 1 µM [1]: < 80%
IC50 [4]: 1370 nM

COc1ccc(C(=O)c2c(C)c(C(=O)/C=C/c3cc(OC)cc(OC)c3)cc3cccn23)cc1
IC50 [4]: 6560 nM

Cc1c(C(=O)/C=C/c2cccc(F)c2)cc2cccn2c1C(=O)c1ccccc1
Activity [17]: Active
viability at 1 µM [1]: > 80%
